Laboratory results reported in patent publication US10399933B2, “Inhibitors of indoleamine-2,3-dioxygenase for the treatment of cancer” (BRISTOL-MYERS SQUIBB COMPANY, priority 2015, dated 2019).

Biological target: human IDO1 (Homo sapiens, UniProt P14902)
Experiment: Human IDO-1 inhibitory activity in Hela cells (interferon-gamma stimulated)
Format: cell-based
Parameters: endogenous in cells; host or cells: HeLa cells stimulated with interferon-gamma
Settings: 18 hours, unstimulated wells = 100% inhibition
Method: HeLa cells were seeded at 20,000 cells per 30 μL per well with RPMI/phenol red free media containing 10% FBS in a 384-well tissue culture plate (black with clear bottoms). 50 nL of compound was added to cells and incubated at 37° C. for one hour. 20 μL of the recombinant human Interferon-gamma (R&D System, Cat. #285-IF, at final concentration of 10 ng/ml) or recombinant murine Interferon-gamma (PEPROTECH® Inc., Cat. #315-05, final concentration of 5 ng/ml) was added to activate IDO signaling. The cells were incubated for 18 hours in 37° C. incubator with 5% CO2.
Compound treatment was stopped by adding 5 μl trichloroacetic acid to a final concentration of 3%. Subsequently, the cell plate was further incubated at 50° C. for 30 minute. An equal volume supernatant (20 μL) and 2% (w/v) Ehrlich reagent (4-dimethylaminobenzaldehyde) in glacial acetic acid were mixed in a new clear bottom 384-well plate. This plate was incubated at room temperature for 30 minutes. Absorbance at 490 nm was measured on Envision plate reader.
Compound IC50 values were calculated using counts from unstimulated (no INF-gamma treatment) wells as 100% inhibition. INF-gamma treatment without compound treatment as 0% inhibition.

human IDO1, sequence (P14902 whole entry): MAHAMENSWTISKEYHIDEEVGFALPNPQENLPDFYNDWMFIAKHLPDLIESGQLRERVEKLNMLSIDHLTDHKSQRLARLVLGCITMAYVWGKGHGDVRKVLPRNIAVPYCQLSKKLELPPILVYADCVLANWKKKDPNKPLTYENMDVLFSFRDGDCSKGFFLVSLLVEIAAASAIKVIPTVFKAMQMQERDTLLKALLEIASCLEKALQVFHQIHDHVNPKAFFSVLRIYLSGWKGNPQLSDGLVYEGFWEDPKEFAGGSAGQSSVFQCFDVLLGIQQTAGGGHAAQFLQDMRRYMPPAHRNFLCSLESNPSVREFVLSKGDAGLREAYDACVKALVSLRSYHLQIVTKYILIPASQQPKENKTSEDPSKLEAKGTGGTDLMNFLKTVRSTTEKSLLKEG

Row | Compound | IC50
1 | 3-(4-((1,1-dioxido- tetrahydro-2H- thiopyran-4-yl) (ethyl)amino)-3- ((4-fluorophenyl) amino)phenyl)-4- isopropoxy- butanoic acid [Example 341] | > 50 nM
2 | 3-(4-((1,1-dioxidotetrahydro-2H- thiopyran-4-yl)(ethyl)amino)-3- ((4-fluorophenyl)amino)phenyl)-4- isopropoxybutanoic acid [Example 345] | > 50 nM
3 | CCN(c1ccc(C(COC)CC(=O)O)cc1Nc1ccc(C#N)cc1)C1CCCOC1 (single isomer, unassigned) [264 E1] | < 50 nM
4 | CCN(c1ccc(C(COC)CC(=O)O)cc1Nc1ccc(C#N)cc1)C1CCCOC1 (single isomer, unassigned) [264 E2] | < 5 nM
5 | CCN(c1ccc(C(COC)CC(=O)O)cc1Nc1ccc(C#N)cc1)C1CCCOC1 (single isomer, unassigned) [265 E1] | < 5 nM
6 | CCN(c1ccc(C(COC)CC(=O)O)cc1Nc1ccc(C#N)cc1)C1CCCOC1 (single isomer, unassigned) [265 E2] | < 5 nM
7 | CCN(c1ccc(C(COC)CC(=O)O)cc1Nc1cnc(OC)nc1)C1CCS(=O)(=O)CC1 (single isomer, unassigned) [Example 168 Enantiomer 1, 3-(4-((1,1-Dioxidotetrahydro-2H-thiopyran-4-yl)(ethyl)amino)-3-((2-methoxypyrimidin-5-yl)amino)phenyl)-4-methoxybutanoic Acid] | > 50 nM
8 | CCN(c1ccc(C(COC)CC(=O)O)cc1Nc1cnc(OC)nc1)C1CCS(=O)(=O)CC1 (single isomer, unassigned) [Example 168 Enantiomer 2, 3-(4-((1,1-Dioxidotetrahydro-2H-thiopyran-4-yl)(ethyl)amino)-3-((2-methoxypyrimidin-5-yl)amino)phenyl)-4-methoxybutanoic Acid] | > 50 nM
9 | CCOc1ncc(Nc2cc(C(COC)CC(=O)O)ccc2N(CC)C2CCS(=O)(=O)CC2)cn1 (single isomer, unassigned) [Example 175, 3-(4-((1,1-dioxidotetrahydro-2H-thiopyran-4-yl)(ethyl)amino)-3-((2-ethoxypyrimidin-5-yl)amino)phenyl)-4-methoxybutanoic acid] | > 50 nM
10 | CCCN(c1ccc(C(COC)CC(=O)O)cc1Nc1ccc(C#N)cc1)C1CCS(=O)(=O)CC1 (single isomer, unassigned) [Example 182 Enantiomer 1, 3-(3-((4-Cyanophenyl)amino)-4-((1,1-dioxidotetrahydro-2H-thiopyran-4-yl)(propyl)amino)phenyl)-4-methoxybutanoic Acid] | < 50 nM
11 | CCCN(c1ccc(C(COC)CC(=O)O)cc1Nc1ccc(C#N)cc1)C1CCS(=O)(=O)CC1 (single isomer, unassigned) [Example 182 Enantiomer 2, 3-(3-((4-Cyanophenyl)amino)-4-((1,1-dioxidotetrahydro-2H-thiopyran-4-yl)(propyl)amino)phenyl)-4-methoxybutanoic Acid] | > 50 nM
12 | CCN(c1ccc(C(CC(=O)O)C2CC2)cc1NC(=O)Nc1ccc(C#N)cc1)C1CCS(=O)(=O)CC1 (single isomer, unassigned) [Example 348 E1, 3-(3-(3-(4-Cyanophenyl)ureido)-4-((1,1-dioxidotetrahydro-2H-thiopyran-4-yl)(ethyl)amino)phenyl)-3-cyclopropylpropanoic Acid] | > 50 nM
13 | CCN(c1ccc(C(CC(=O)O)C2CC2)cc1NC(=O)Nc1ccc(C#N)cc1)C1CCS(=O)(=O)CC1 (single isomer, unassigned) [Example 348 E2, 3-(3-(3-(4-Cyanophenyl)ureido)-4-((1,1-dioxidotetrahydro-2H-thiopyran-4-yl)(ethyl)amino)phenyl)-3-cyclopropylpropanoic Acid] | > 50 nM
14 | CCN(c1ccc([C@H](COC)CC(=O)O)cc1Nc1ccc(C#N)cn1)C1CCOCC1 (single isomer, unassigned) [Example 389] | < 50 nM
15 | CCN(c1ccc([C@H](COC)CC(=O)O)cc1Nc1ccc(C#N)c(F)c1)C1CCOCC1 (single isomer, unassigned) [Example 390] | < 5 nM
16 | CCN(c1ccc([C@H](COC)CC(=O)O)cc1Nc1ccc(C#N)cc1F)C1CCOCC1 (single isomer, unassigned) [Example 392] | < 5 nM
17 | CCN(c1ccc([C@H](COC)CC(=O)O)cc1Nc1ccc(Cl)cn1)C1CCOCC1 (single isomer, unassigned) [Example 393] | < 50 nM

Row | Compound | IC50
18 | CCN(c1ccc([C@H](COC)CC(=O)O)cc1Nc1ncc(Cl)cn1)C1CCOCC1 (single isomer, unassigned) [Example 394] | < 50 nM
19 | CCN(c1ccc([C@H](COC)CC(=O)O)cc1Nc1ncc(F)cn1)C1CCOCC1 (single isomer, unassigned) [Example 396] | > 50 nM
20 | CCN(c1ccc([C@H](COC)CC(=O)O)cc1Nc1cccc(OC(F)(F)C(F)F)c1)C1CCOCC1 (single isomer, unassigned) [Example 397] | > 50 nM
21 | CCN(c1ccc([C@H](COC)CC(=O)O)cc1Nc1ccc(Cl)cc1F)C1CCOCC1 (single isomer, unassigned) [Example 399] | < 5 nM
22 | CCN(c1ccc([C@H](COC)CC(=O)O)cc1Nc1ccc(F)cn1)C1CCOCC1 (single isomer, unassigned) [Example 400] | < 50 nM
23 | CCN(c1ccc([C@H](COC)CC(=O)O)cc1Nc1ccc(F)cc1F)C1CCOCC1 (single isomer, unassigned) [Example 402] | < 50 nM
24 | CCN(c1ccc([C@H](COC)CC(=O)O)cc1Nc1ccc(C#N)cc1C)C1CCOCC1 (single isomer, unassigned) [Example 404] | < 50 nM
25 | CCN(c1ccc([C@H](COC)CC(=O)O)cc1Nc1cccc(C#N)c1)C1CCOCC1 (single isomer, unassigned) [Example 405] | > 50 nM
26 | CCN(c1ccc([C@H](COC)CC(=O)O)cc1Nc1ccccc1C#N)C1CCOCC1 (single isomer, unassigned) [Example 406] | > 50 nM
27 | CCOc1cc(Nc2cc([C@H](COC)CC(=O)O)ccc2N(CC)C2CCOCC2)ccc1C#N (single isomer, unassigned) [Example 407] | < 50 nM
28 | CCN(c1ccc([C@H](COC)CC(=O)O)cc1Nc1ccc(C#N)c(OCC(F)F)c1)C1CCOCC1 (single isomer, unassigned) [Example 408] | < 50 nM
29 | CCN(c1ccc([C@H](COC)CC(=O)O)cc1Nc1ccc(C#N)c(OCC(F)(F)F)c1)C1CCOCC1 (single isomer, unassigned) [Example 409] | < 50 nM
30 | CCc1ccc(Nc2cc([C@H](COC)CC(=O)O)ccc2N(CC)C2CCOCC2)cc1 (single isomer, unassigned) [Example 411] | < 5 nM
31 | CCN(c1ccc([C@H](COC)CC(=O)O)cc1Nc1ccc(F)cc1)C1CCOCC1 (single isomer, unassigned) [Example 412] | < 5 nM
32 | CCN(c1ccc([C@H](COC)CC(=O)O)cc1Nc1ccc2nc(C)sc2c1)C1CCOCC1 (single isomer, unassigned) [Example 414] | < 50 nM
33 | CCN(c1ccc([C@H](COC)CC(=O)O)cc1Nc1ccc2c(c1)OC(F)(F)O2)C1CCOCC1 (single isomer, unassigned) [Example 415] | < 5 nM
34 | CCN(c1ccc([C@H](COC)CC(=O)O)cc1Nc1ccc(C#N)c(OC)c1)C1CCOCC1 (single isomer, unassigned) [Example 417] | < 50 nM
